This is an account of results in patent US20080312171A1, “Tetracycline-Dependent Regulation of Rna Interference” (CENTRE NATIONAL DE LA RECHERCHE SCIENTIFIQUE, priority 2005, published 2008).

Holding throughout (format): cell-based
One assay concerns human p53. In words: Western blot analysis of p53 silencing by Dox-regulated RNAi in HEK 293T, MCF-7 and A549 cells. As to conditions: transduced HEK 293T, Dox 6 μg/ml, 5-7 days, densitometric analysis. The method, then:
Cells (1×10^5) were incubated overnight with indicated quantities of vector, expressed as ng of protein p24, and then cultivated in the absence and in the presence of 6 μg/ml Dox. After a 5 day (MCF-7 and A549 cells) and a 7 day cultivation (HEK 293T cells), protein was extracted from the cells and analyzed by immunoblotting.
Inventors constructed a second vector, which contained a shRNA encoding sequence designed to silence expression of human p53 as described (1). […] The expression of p53 was not reduced when non-transduced cells were incubated in the presence of Dox (6 μg/ml).
Cell extracts were prepared in lysis buffer [25 mM Tris-HCl (pH 7.5), 1% Triton X-100, 0.5% sodium deoxycholate, 5 mM EDTA, 150 mM NaCl] containing a cocktail of protease inhibitors (Roche, Meylan, France). The protein samples (30 μg) were separated on SDS-9% polyacrylamide gels and then transferred to Protan nitrocellulose membranes (Schleicher and Shuell, Dassel, Germany) in an electroblotting apparatus, using standard procedures (26). Immunodetection was performed as described in Tejedor-Real et al. (27), using a monoclonal anti-p53 antibody (BD Biosciences, Erembodegem, Belgium), a monoclonal anti-actin antibody (Chemicon, Hampshire, UK) and an anti-mouse Ig-horseradish peroxidase (HRP) conjugate (Amersham Biosciences).
(In western blotting, separated proteins are transferred to a membrane and probed.)

The test system of assay [1] is GFP expression in HEK 293T GFP cell clones. The assay is described as follows: GFP fluorescence (FACS, microscopy) in cell clones from transduced HEK 293T GFP cells, Dox-controlled RNAi.
The subject of assay [2] is GFP expression in HEK 293T GFP cells. The assay is described as follows: FACS analysis of GFP-positive cells, vector-transduced HEK 293T GFP cells with and without Dox. As to conditions: various amounts of vector, Dox 6 μg/ml, 5 days.

On to `C[C@H]1c2cccc(O)c2C(=O)C2=C(O)[C@]3(O)C(=O)C(C(N)=O)=C(O)[C@@H](N(C)C)[C@@H]3[C@@H](O)[C@@H]21` [Dox, Doxycycline], for which the “inhibition of the expression of p53” value in the assay on human p53 is recorded as “up to 90%”. In addition, the “MFI (+Dox)” value in assay [1] (clone C1) worked out at 4; in assay [1] (clone C9), 32; in assay [1] (clone D8), 9; in assay [1] (clone H6), 77. Further, the Regulation factor in assay [1] (clone C1, MFI (−Dox) over MFI (+Dox)) is given as 52; in assay [1] (clone C9, MFI (−Dox) over MFI (+Dox)) it was 9.7; in assay [1] (clone D8, MFI (−Dox) over MFI (+Dox)), 24; in assay [1] (clone H6, MFI (−Dox) over MFI (+Dox)), 4.4. Further, the “reduction of GFP fluorescence” value in assay [1] (clone C9, 6 μg/ml Dox, after 5-6 days, FACS) was 90%. In addition, the “concentration required to induce a 90% suppression of GFP” value in assay [1] (clone C9, within 5 days) is listed as “about 6 μg/ml”. For the same compound, the “reduction of the number of GFP-expressing cells” value in assay [2] is “up to 60%”.
